Source: the supplement of paper PMC10307832

How the values were obtained:
Assay in all cases: relative viability (nuclei count vs DMSO), 5 days (fraction); higher = more cells survive
[1] = compound: N#CC[C@H](C1CCCC1)n1cc(-c2ncnc3[nH]ccc23)cn1 [Ruxolitinib] + C[C@]1(O)C[C@@H](c2nc(-c3ccc4ccc(-c5ccccc5)nc4c3)c3c(N)nccn32)C1 [Linsitinib] (partner 1 µM)
Method in brief: (§1)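 After 5 days of treatment, lung cancer cells in 1536-well plates were fixed and stained in a single step (final 0.05% Triton X-100, 1% formaldehyde, 1 ug/ml Hoechst) and their nuclei counted on 4× images. Treatment had been applied by pin tool the day after seeding as one drug alone or as a fixed anchor-drug dose with five library-drug doses (not always all listed) in √10 steps. Relative viability is the nuclei count of treated wells divided by that of vehicle wells, and values are medians of duplicate plates.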

[2] = compound: N#CC[C@H](C1CCCC1)n1cc(-c2ncnc3[nH]ccc23)cn1 [Ruxolitinib] + CC1(C)CCC(c2ccc(Cl)cc2)=C(CN2CCN(c3ccc(C(=O)NS(=O)(=O)c4ccc(N[C@H](CCN5CCOCC5)CSc5ccccc5)c(S(=O)(=O)C(F)(F)F)c4)cc3)CC2)C1 [Navitoclax] (partner 0.5 µM)
Method in brief: as §1

[3] = compound: CS(=O)(=O)c1ccc(-c2cnc(N)c(C(=O)Nc3ccccc3)n2)cc1 [VE-821] + CC(=O)c1c(C)c2cnc(Nc3ccc(N4CCNCC4)cn3)nc2n(C2CCCC2)c1=O [Palbociclib] (partner 0.5 µM)
Method in brief: as §1

[4] = compound: CS(=O)(=O)c1ccc(-c2cnc(N)c(C(=O)Nc3ccccc3)n2)cc1 [VE-821] + CS(=O)(=O)N1CCN(Cc2cc3nc(-c4cccc5[nH]ncc45)nc(N4CCOCC4)c3s2)CC1 [Pictilisib] (partner 1 µM)
Method in brief: as §1

Row | Cell Line | relative viability ([1]; first compound 0.08 µM) | relative viability ([1]; first compound 0.253 µM) | relative viability ([1]; first compound 0.8 µM) | relative viability ([1]; first compound 2.53 µM) | relative viability ([1]; first compound 8 µM) | relative viability ([2]; first compound 0.08 µM) | relative viability ([2]; first compound 0.253 µM) | relative viability ([2]; first compound 0.8 µM) | relative viability ([2]; first compound 2.53 µM) | relative viability ([2]; first compound 8 µM) | relative viability ([3]; first compound 0.08 µM) | relative viability ([3]; first compound 0.253 µM) | relative viability ([3]; first compound 0.8 µM) | relative viability ([3]; first compound 2.53 µM) | relative viability ([3]; first compound 8 µM) | relative viability ([4]; first compound 0.08 µM) | relative viability ([4]; first compound 0.253 µM) | relative viability ([4]; first compound 0.8 µM) | relative viability ([4]; first compound 2.53 µM) | relative viability ([4]; first compound 8 µM)
1 | NCI-H1666 | 0.739 | 0.949 | 0.933 | 0.776 | 0.902 | 0.876 | 1.01 | 1.1 | 0.759 | 1.07 | 0.635 | 0.685 | 0.644 | 0.713 | 0.621 | 0.516 | 0.365 | 0.399 | 0.441 | 0.403
2 | EPLC-272H | 1.26 | 1.12 | 1.31 | 1.19 | 1.25 | 1.48 | 1.14 | 1.31 | 1.05 | 0.954 | 0.342 | 0.313 | 0.295 | 0.33 | 0.326 | 0.427 | 0.32 | 0.347 | 0.399 | 0.309
3 | NCI-H838 | 1.03 | 0.903 | 0.87 | 0.534 | 0.36 | 1.08 | 1.06 | 1.04 | 0.641 | 0.406 | 0.222 | 0.186 | 0.218 | 0.266 | 0.191 | 0.436 | 0.359 | 0.496 | 0.561 | 0.557
4 | NCI-H2087 | 0.861 | 1.08 | 0.983 | 0.692 | 0.638 | 0.922 | 0.874 | 0.846 | 0.801 | 0.795 | 0.263 | 0.192 | 0.292 | 0.259 | 0.297 | 1.23 | 0.721 | 0.971 | 1.14 | 0.888
5 | LC-2-ad | 0.741 | 0.86 | 0.814 | 0.68 | 0.496 | 0.376 | 0.435 | 0.444 | 0.257 | 0.243 | 0.557 | 0.473 | 0.559 | 0.504 | 0.514 | 0.704 | 0.392 | 0.545 | 0.514 | 0.373
6 | NCI-H2405 | – | 0.779 | 1.1 | 0.528 | 0.632 | – | 0.771 | 1.28 | 0.456 | 0.471 | 0.533 | 0.496 | 0.541 | 0.558 | 0.408 | 0.468 | 0.388 | 0.431 | 0.446 | 0.355
7 | HCC-366 | 0.595 | 0.401 | 0.647 | 0.535 | 0.541 | 1.14 | 1.05 | 1.05 | 0.965 | 0.993 | 0.668 | 0.378 | 0.303 | 0.0939 | 0.0558 | 0.152 | 0.252 | 0.0721 | 0.127 | 0.101
8 | NCI-H3122 | 1.09 | 1.06 | 1.02 | 0.815 | 1.04 | 1.04 | 1.03 | 0.981 | 0.923 | 0.963 | 0.196 | 0.187 | 0.166 | 0.225 | 0.227 | 0.666 | 0.672 | 0.563 | 0.765 | 0.78
9 | LU99A | 0.549 | 0.499 | 0.541 | 0.554 | 0.499 | 0.986 | 0.737 | 0.803 | 0.751 | 0.666 | 0.426 | 0.456 | 0.434 | 0.408 | 0.267 | 0.362 | 0.311 | 0.29 | 0.319 | 0.253
10 | NCI-H1650 | – | – | – | – | – | – | 1.05 | 1.23 | 0.96 | 0.971 | 0.342 | 0.324 | 0.329 | 0.4 | 0.336 | 0.677 | 0.506 | 0.57 | 0.638 | 0.499
11 | EMC-BAC-2 | 0.799 | 0.822 | 0.87 | 0.744 | 0.66 | 1.11 | 1.13 | 1.18 | 1.09 | 1.06 | 0.531 | 0.491 | 0.528 | 0.545 | 0.524 | 0.548 | 0.528 | 0.583 | 0.593 | 0.552
12 | HCC-78 | 0.419 | 0.296 | 0.437 | 0.372 | 0.414 | 0.663 | 0.528 | 0.692 | 0.604 | 0.702 | 0.491 | 0.453 | 0.482 | 0.489 | 0.461 | 0.207 | 0.237 | 0.229 | 0.22 | 0.206
13 | NCI-H1734 | 0.852 | 0.752 | 0.794 | 0.8 | 0.821 | 0.749 | 0.698 | 0.899 | 0.724 | 0.785 | 0.462 | 0.363 | 0.325 | 0.337 | 0.532 | 0.453 | 0.47 | 0.433 | 0.527 | 0.36
14 | COR-L23 | 0.919 | 0.92 | 0.95 | 0.833 | 0.671 | 1.03 | 1.1 | 1.21 | 0.907 | 0.638 | 0.284 | 0.307 | 0.32 | 0.394 | 0.307 | 1.17 | 0.654 | 0.961 | 0.981 | 0.682
15 | RERF-LC-KJ | 0.883 | 0.812 | 0.877 | 0.904 | 0.634 | 1.05 | 0.963 | 1.59 | 1.15 | 0.657 | 1.2 | 1.01 | 0.973 | 0.929 | 0.792 | 0.496 | 0.498 | 0.463 | 0.547 | 0.482
16 | NCI-H1437 | 0.983 | 0.994 | 1.02 | 0.966 | 0.653 | 1.12 | 1.14 | 1.14 | 1.05 | 0.884 | 0.305 | 0.262 | 0.36 | 0.335 | 0.284 | 0.448 | 0.352 | 0.458 | 0.396 | 0.3
